Test results reported in ChEMBL document CHEMBL5346925, “3,4-Dihydrobenzo[e][1,2,3]oxathiazine 2,2-dioxide analogs act as potential AMPA receptor potentiators with antidepressant activity” (Eur J Med Chem, 2023).
Activity calls are given as the source filed them. The rule behind the calls is not given here.

Legend:
[1] = Drug concentration in Sprague-Dawley rat plasma at 1 mg/kg, po measured after 24 hr by LC-MS/MS analysis; format: ADME, organism-based
[2] = MRT (0 to infinity) in Sprague-Dawley rat at 1 mg/kg, po by LC-MS/MS analysis; format: ADME, organism-based; conditions: in vivo
[3] = Cmax in Sprague-Dawley rat at 0.1 mg/kg, iv by LC-MS/MS analysis; format: ADME, organism-based; design: dose 0.1 mg/kg, route iv; conditions: in vivo
[4] = Clearance in Sprague-Dawley rat at 0.1 mg/kg, iv by LC-MS/MS analysis; format: ADME, organism-based; conditions: in vivo
[5] = target: T1, Glutamate receptor ionotropic, AMPA (Rattus norvegicus) (UniProt P19491+P19492+P19493+P19490); assay: Agonist activity at AMPA receptor in rat Primary neuron cells assessed as potentiation of s-AMPA induced calcium flux at 1 uM incubated for 1 hr by calcium 2+ influx assay relative to s-AMPA coupled TAK-137; format: cell-based; conditions: filed as agonist
[6] = AUC (0 to infinity) in Sprague-Dawley rat at 0.1 mg/kg, iv by LC-MS/MS analysis; format: ADME, organism-based; design: dose 0.1 mg/kg, route iv; conditions: in vivo
[7] = Ratio of drug concentration in brain to plasma in Sprague-Dawley rat at 1 mg/kg, po measured after 8 hrs by LC-MS/MS analysis; format: ADME, organism-based; conditions: read-out: BPR
[8] = Ratio of drug concentration in brain to plasma in Sprague-Dawley rat at 1 mg/kg, po measured after 24 hrs by LC-MS/MS analysis; format: ADME, organism-based; conditions: read-out: BPR
[9] = Drug concentration in Sprague-Dawley rat brain at 1 mg/kg, po measured after 0.25 hr by LC-MS/MS analysis; format: ADME, organism-based; conditions: read-out: Ct
[10] = target: T1, Glutamate receptor ionotropic, AMPA (Rattus norvegicus); assay: Agonist activity at AMPA receptor in rat Primary neuron cells assessed as increase in fluorescence level at 1 uM incubated for 1 hr by calcium 2+ influx assay relative to s-AMPA coupled TAK-137; format: cell-based
[11] = AUC (0 to t) in Sprague-Dawley rat at 0.1 mg/kg, iv by LC-MS/MS analysis; format: ADME, organism-based; design: dose 0.1 mg/kg, route iv; conditions: in vivo
[12] = Half life in Sprague-Dawley rat at 0.1 mg/kg, iv by LC-MS/MS analysis; format: ADME, organism-based; conditions: in vivo
[13] = Toxicity in mouse assessed as histopathological changes in heart at 0.2 to 0.4 mg/kg, ip administered once daily for 2 weeks and measured after 15 days by H and E staining based analysis; format: organism-based; conditions: in vivo, 360 h, dose 0.2-0.4 mg/kg, time 15 day
[14] = Drug concentration in Sprague-Dawley rat plasma at 1 mg/kg, po measured after 1 hr by LC-MS/MS analysis; format: ADME, organism-based
[15] = target: T1, Glutamate receptor ionotropic, AMPA (Rattus norvegicus); assay: Agonist activity at AMPA receptor in rat Primary neuron cells relative to control; format: cell-based; conditions: filed as agonist
[16] = Drug concentration in Sprague-Dawley rat plasma at 1 mg/kg, po measured after 4 hr by LC-MS/MS analysis; format: ADME, organism-based
[17] = Toxicity in mouse assessed as histopathological changes in lung at 0.2 to 0.4 mg/kg, ip administered once daily for 2 weeks and measured after 15 days by H and E staining based analysis; format: organism-based; conditions: in vivo, 360 h, dose 0.2-0.4 mg/kg, time 15 day
[18] = Drug concentration in Sprague-Dawley rat plasma at 1 mg/kg, po measured after 6 hr by LC-MS/MS analysis; format: ADME, organism-based
[19] = Drug concentration in Sprague-Dawley rat brain at 1 mg/kg, po measured after 2 hrs by LC-MS/MS analysis; format: ADME, organism-based; conditions: read-out: Ct
[20] = Toxicity in mouse assessed as histopathological changes in liver at 0.2 to 0.4 mg/kg, ip administered once daily for 2 weeks and measured after 15 days by H and E staining based analysis; format: organism-based; conditions: in vivo, 360 h, dose 0.2-0.4 mg/kg, time 15 day
[21] = Ratio of drug concentration in brain to plasma in Sprague-Dawley rat at 1 mg/kg, po measured after 0.25 hrs by LC-MS/MS analysis; format: ADME, organism-based; conditions: read-out: BPR
[22] = Drug concentration in Sprague-Dawley rat plasma at 1 mg/kg, po measured after 0.25 hrs by LC-MS/MS analysis; format: ADME, organism-based
[23] = Toxicity in mouse assessed as histopathological changes in kidney at 0.2 to 0.4 mg/kg, ip administered once daily for 2 weeks and measured after 15 days by H and E staining based analysis; format: organism-based; conditions: in vivo, 360 h, dose 0.2-0.4 mg/kg, time 15 day
[24] = MRT (0 to t) in Sprague-Dawley rat at 0.1 mg/kg, iv by LC-MS/MS analysis; format: ADME, organism-based; conditions: in vivo
[25] = Drug concentration in Sprague-Dawley rat brain at 1 mg/kg, po measured after 8 hrs by LC-MS/MS analysis; format: ADME, organism-based; conditions: read-out: Ct
[26] = Drug concentration in Sprague-Dawley rat brain at 1 mg/kg, po measured after 6 hrs by LC-MS/MS analysis; format: ADME, organism-based; conditions: read-out: Ct
[27] = Tmax in Sprague-Dawley rat at 1 mg/kg, po by LC-MS/MS analysis; format: ADME, organism-based; conditions: in vivo
[28] = Drug concentration in Sprague-Dawley rat plasma at 1 mg/kg, po measured after 2 hr by LC-MS/MS analysis; format: ADME, organism-based
[29] = MRT (0 to infinity) in Sprague-Dawley rat at 0.1 mg/kg, iv by LC-MS/MS analysis; format: ADME, organism-based; conditions: in vivo
[30] = Drug concentration in Sprague-Dawley rat plasma at 1 mg/kg, po measured after 0.50 hrs by LC-MS/MS analysis; format: ADME, organism-based
[31] = Volume of distribution at steady state in Sprague-Dawley rat at 0.1 mg/kg, iv by LC-MS/MS analysis; format: ADME, organism-based; conditions: in vivo, read-out: Vdss
[32] = Drug concentration in Sprague-Dawley rat brain at 1 mg/kg, po measured after 24 hrs by LC-MS/MS analysis; format: ADME, organism-based; conditions: read-out: Ct
[33] = Drug concentration in Sprague-Dawley rat brain at 1 mg/kg, po measured after 1 hr by LC-MS/MS analysis; format: ADME, organism-based; conditions: read-out: Ct
[34] = Drug concentration in Sprague-Dawley rat plasma at 1 mg/kg, po measured after 8 hr by LC-MS/MS analysis; format: ADME, organism-based
Mus musculus [35] = assay: Antidepressant activity in chronic restraint induced depressive mouse assessed as rescue in sucrose preference at 0.03 to 0.05 mg/kg administered for 2 days after 16th day by sucrose preference test; format: functional, organism-based; conditions: dose 0.03-0.05 mg/kg, time 2.0 day
Mus musculus [36] = assay: Antidepressant activity in chronic restraint induced depressive mouse assessed as rescue in immobility time at 0.03 to 0.05 mg/kg administered for 1 day after 14th day by forced swimming test; format: functional, organism-based; conditions: dose 0.03-0.05 mg/kg
[37] = Drug concentration in Sprague-Dawley rat brain at 1 mg/kg, po measured after 0.50 hr by LC-MS/MS analysis; format: ADME, organism-based; conditions: read-out: Ct
[38] = Ratio of drug concentration in brain to plasma in Sprague-Dawley rat at 1 mg/kg, po measured after 1 hrs by LC-MS/MS analysis; format: ADME, organism-based; conditions: read-out: BPR
[39] = Half life in Sprague-Dawley rat at 1 mg/kg, po by LC-MS/MS analysis; format: ADME, organism-based; conditions: in vivo
[40] = Ratio of drug concentration in brain to plasma in Sprague-Dawley rat at 1 mg/kg, po measured after 2 hrs by LC-MS/MS analysis; format: ADME, organism-based; conditions: read-out: BPR
[41] = Tmax in Sprague-Dawley rat at 0.1 mg/kg, iv by LC-MS/MS analysis; format: ADME, organism-based; conditions: in vivo

concentration at 24 h [1]: 3.96 ng/mL
MRT inf [2]: 6.08 h
Cmax [3]: 152 ng/mL
clearance [4]: 12.9 mL/min/kg
Activity [5]: 80.2%
AUC(0-inf) [6]: 129 ng·h/mL
Kp at 8 h [7]: 1.5
Kp at 24 h [8]: 1.48
concentration at 0.25 h [9]: 74.7 ng/g
Activity [10]: -2.6%
AUC(0-t) [11]: 120 ng·h/mL
half-life [12]: 2.71 h
concentration at 1 h [14]: 132 ng/mL
Emax [15]: 137%
concentration at 4 h [16]: 79.3 ng/mL
concentration at 6 h [18]: 54.2 ng/mL
concentration at 2 h [19]: 133 ng/g
Kp at 0.25 h [21]: 0.59
concentration at 0.25 h [22]: 125 ng/mL
MRT last [24]: 1.46 h
concentration at 8 h [25]: 37.2 ng/g
concentration at 6 h [26]: 93 ng/g
Tmax [27]: 0.5 h
concentration at 2 h [28]: 62.3 ng/mL
MRT inf [29]: 2.22 h
concentration at 0.5 h [30]: 142 ng/mL
Vd [31]: 1.72 L/kg
concentration at 24 h [32]: 6.05 ng/g
concentration at 1 h [33]: 217 ng/g
concentration at 8 h [34]: 25.5 ng/mL
concentration at 0.5 h [37]: 150 ng/g
Kp at 1 h [38]: 1.63
half-life [39]: 4.84 h
Kp at 2 h [40]: 2.15
Tmax [41]: 4.8 min
SMILES: O=S1(=O)NCc2cccc(-c3ccc(-c4ccccc4F)cc3)c2O1
Activity [13]: Non-Toxic
Activity [17]: Non-Toxic
Activity [20]: Non-Toxic
Activity [23]: Non-Toxic
Activity (Mus musculus [35]): Active
Activity (Mus musculus [36]): Active
